In assay [1] the test system is Mycobacterium tuberculosis. The experiment in a line: Antitubercular activity against Mycobacterium tuberculosis H37Rv assessed as bacterial growth inhibition incubated for 6 days by resazurin based fluorescence assay. Particulars: 144 h, time 6 day. The class given is functional. For orientation: The colour change of resazurin is a common sign of viable cells or microbes.

The subject of assay [2] is Mycobacterium tuberculosis. In words: Antimycobacterial activity against Mycobacterium tuberculosis H37Rv assessed as bacterial growth inhibition incubated for 6 days by resazurin dye based assay. The class given is functional. Particulars: 144 h, time 6 day.
For assay [3], the system named is Mycobacterium tuberculosis. The experiment in a line: Antitubercular activity against Mycobacterium tuberculosis H37Rv assessed as bacterial growth inhibition by REMA analysis. The class given is functional.
In assay [4] the test system is Mycobacterium tuberculosis. The experiment in a line: Antitubercular activity against Mycobacterium tuberculosis assessed as bacterial growth inhibition. In kind it is functional.
Assay [5] deals with Mycobacterium tuberculosis. The experiment in a line: Antitubercular activity against Mycobacterium tuberculosis H37Rv assessed as bacterial growth inhibition incubated for 7 days by resazurin reduction microplate assay. In kind it is functional. The settings on record: 168 h, time 7 day.
For assay [6], the system named is Mycobacterium tuberculosis. The experiment in a line: Antitubercular activity against Mycobacterium tuberculosis H37Rv infected in human THP-1 cells assessed as bacterial growth inhibition incubated for 48 hrs by PrestoBlue staining based fluorescence analysis. In kind it is functional, organism-based. Particulars: THP-1, 48 h.
The subject of assay [7] is Mycobacterium tuberculosis. In words: Antitubercular activity against Mycobacterium tuberculosis H37Rv ATCC 27294 assessed as bacterial growth inhibition by resazurin microtiter assay. In kind it is functional.
Assay [8] has as its system Mycobacterium tuberculosis. In words: Antitubercular activity against Mycobacterium tuberculosis H37Rv ATCC 27294 infected in mouse J774 cells assessed as intracellular bacterial growth inhibition incubated for by resazurin microtiter assay. The class given is functional.
In assay [9] the test system is Mycobacterium tuberculosis. The experiment in a line: Antimycobacterial activity against Mycobacterium tuberculosis H37Rv ATCC27294 assessed as bacterial growth inhibition incubated for 7 days by microplate Alamar blue assay. In kind it is functional. The settings on record: H37Rv ATCC27294, 168 h, time 7 day.
Assay [10] deals with Mycobacterium tuberculosis. The experiment in a line: Antitubercular activity against Mycobacterium tuberculosis H37Rv expressing GFP assessed as bacterial growth inhibition by measuring GFP fluorescence incubated for 72 hrs by fluorescence analysis. In kind it is functional.
The subject of assay [11] is Mycobacterium tuberculosis. In words: Antitubercular activity against Mycobacterium tuberculosis H37Rv assessed as bacterial growth inhibition incubated for 6 days by resazurin reduction microplate assay. The settings on record: 144 h, time 6 day. In kind it is functional.
The test system of assay [12] is Mycobacterium tuberculosis. The experiment in a line: Antitubercular activity against Mycobacterium tuberculosis H37Rv assessed as bacterial growth inhibition incubated for 24 hrs by [14C]-acetate labelling based radiometric analysis. In kind it is functional.
For assay [13], the system named is Mycobacterium tuberculosis. In words: Antitubercular activity against Mycobacterium tuberculosis H37Rv assessed as bacterial growth inhibition. The class given is functional.
Assay [14] has as its system Mycobacterium tuberculosis. The experiment in a line: Antitubercular activity against Mycobacterium tuberculosis H37Rv ATCC25618 assessed as bacterial growth inhibition incubated for 6 days by resazurin based fluorescence analysis. In kind it is functional. Particulars: H37Rv ATCC25618, 144 h, time 6 day.
Assay [15] relates to Mycobacterium tuberculosis. The experiment in a line: Antitubercular activity against Mycobacterium tuberculosis H37Rv assessed as bacterial growth inhibition and measured upto 14 days by microplate alamar blue assay. The class given is functional. Particulars: 336 h, time <= 14 day.
In assay [16] the test system is Mycobacterium tuberculosis. The experiment in a line: Antitubercular activity against Mycobacterium tuberculosis mc2 7000 assessed as bacterial growth inhibition incubated for 6 days by resazurin based fluorescence assay. The class given is functional. The settings on record: mc2 7000, 144 h, time 6 day.
Assay [17] has as its system Mycobacterium tuberculosis. In words: Antitubercular activity against Mycobacterium tuberculosis MDR_CHUV assessed as bacterial growth inhibition by REMA analysis. In kind it is functional.
The test system of assay [18] is Mycobacterium tuberculosis. The experiment in a line: Antitubercular activity against Mycobacterium tuberculosis H37Rv infected in human HepG2 cells assessed as reduction in colony forming unit by CFU analysis. In kind it is functional, organism-based.

The record followed here is ChEMBL document CHEMBL5260858, “Targeting mycobacterial membranes and membrane proteins: Progress and limitations” (Bioorg Med Chem, 2023).

SMILES strings stand for the structures. ≈ marks a conversion by molar mass, not a printed value.

The MIC is the lowest concentration that inhibits growth of the organism. As to `CCc1ccc([C@H]2C[C@@H](C(F)(F)F)n3ncc(C(=O)NCc4ccc(OC)cc4)c3N2)cc1`, the minimum inhibitory concentration (MIC) in assay [1] was 0.25 µM (≈ 0.115 µg/mL). `O=c1nc(N2CCN(S(=O)(=O)C3CC3)CC2)sc2c([N+](=O)[O-])cc(C(F)(F)F)cc12`: the MIC in [2] was determined as 0.003 µg/mL (≈ 0.00646 µM). Consider `CCCCCCCN1CCN(c2nc(=O)c3cc(C(F)(F)F)cc([N+](=O)[O-])c3s2)CC1`, for which the MIC in assay [3] is 0.00019 µg/mL (≈ 0.000414 µM).

Regarding `O=C1CCc2c(cccc2OC[C@]2(O)CCN(c3c(F)cc(Cl)cc3F)C[C@H]2O)N1`, the MIC in [4] came to 0.0005 µg/mL (≈ 0.00114 µM). As usually defined, the IC50 is the concentration needed to halve the response being measured. In the case of `CCSc1nc(NC)c2ccccc2n1`, the MIC in [5] worked out at 0.09 µg/mL (≈ 0.41 µM). In addition, in [6], the IC50 amounted to 0.012 µg/mL (≈ 0.0547 µM). As a reminder, the MIC90 is an inhibitory concentration at the 90% level, which refers to growth in some studies and to a panel of isolates in others. With `CC1(C)CC(=O)C(=CNc2ccccc2O)C(=O)C1`, in assay [7], the MIC90 came out at 7 µg/mL (≈ 27 µM). Further, the minimal inhibitory concentration (MIC) in assay [8] amounted to 8 µg/mL (≈ 30.9 µM).

In the case of `O=c1nc(N2CC3CN(Cc4ccc(Cl)c(F)c4)CC3C2)sc2c([N+](=O)[O-])cc(C(F)(F)F)cc12` (centres undefined), the MIC in assay [9] is less than 0.035 µM. As to `Clc1ccc2c(c1)N(CCC[P+](c1ccccc1)(c1ccccc1)c1ccccc1)c1ccccc1S2.[Cl-]`, the MIC in assay [4] came to 1 µg/mL. By IC90 is commonly meant the concentration at which the effect reaches the 90% level. Consider `CCCn1cnc2cc(NCc3ccc(Cl)cc3Cl)ccc21`, for which the IC90 in [10] came to 16 µM. On to `O=C(/C=C/c1nccs1)N1CCN(Cc2ccc3c(c2)OCO3)CC1`, for which the MIC in assay [11] was determined as 0.3 µg/mL (≈ 0.839 µM). The 50% inhibitory concentration (IC50) in assay [6] is 1.8 µg/mL (≈ 5.04 µM). For the compound `CCc1ccc([C@H]2C[C@@H](C(F)(F)F)n3ncc(C(=O)NCc4ccc5c(c4)OCO5)c3N2)cc1`, in assay [12], the minimum inhibitory concentration (MIC) came to 0.16 µM (≈ 0.0756 µg/mL). For orientation: MIC50 means the lowest concentration that inhibits either 50% of growth or 50% of the strains tested, depending on the study. For the compound `FC(F)(F)c1ccc2c(c1)N(CCC[P+](c1ccccc1)(c1ccccc1)c1ccccc1)c1ccccc1S2.[Cl-]`, the MIC50 in assay [13] was determined as 1 µg/mL. On to `CCCCCc1ccc(NC(=O)COc2cc(C)nc3ccc(OC)cc23)cc1`, for which the MIC in assay [14] was determined as 0.02 µg/mL (≈ 0.051 µM).

Regarding `Cc1cc(C)c2cc(C(=O)NC3CCCCCCC3)[nH]c2c1`, in [15], the MIC was determined as 0.0039 µg/mL (≈ 0.0131 µM). Turning to `COc1ccc(/C=C2/S/C(=N/N=C/c3ccccc3O)NC2=O)cc1`, the MIC90 in assay [7] came out at 1 µg/mL (≈ 2.83 µM). For the same compound, in assay [8], the MIC came to 4 µg/mL (≈ 11.3 µM). `CCc1ccc([C@H]2C[C@@H](C(F)(F)F)n3ncc(C(=O)NCc4ccc(F)cn4)c3N2)cc1`: the MIC in assay [12] worked out at 0.5 µM (≈ 0.224 µg/mL). On to `CNC(=O)c1c(-c2ccccc2)oc2ccc(O)c(CN3CCCCC3)c12`, for which, in [16], the minimum inhibitory concentration (MIC) was 0.2 µM (≈ 0.0729 µg/mL). Take `CN(C)CCCN1c2ccccc2Sc2ccc(Cl)cc21` [CHLORPROMAZINE]: the MIC in assay [4] stood at 25 µg/mL (≈ 78.4 µM). With `O=c1c(NCc2ccccn2)c(-c2ccc(N3CCOCC3)cc2)c1=O`, the MIC in assay [13] stood at 0.016 µg/mL (≈ 0.0458 µM). Turning to `CCOC(=O)c1c(-c2ccccc2)oc2ccc(O)c(CN3CCC(C)CC3)c12`, the MIC in [16] turned out to be 2.3 µM (≈ 0.905 µg/mL). Consider `CN1CCN(CCCN2c3ccccc3Sc3ccc(C(F)(F)F)cc32)CC1` [TRIFLUOPERAZINE], for which, in assay [4], the MIC stood at 5 µg/mL (≈ 12.3 µM). Consider `O=c1nc(N2CCN(CCCCOc3ccccc3)CC2)sc2c([N+](=O)[O-])cc(C(F)(F)F)cc12`, for which the MIC in [3] stood at 0.0015 µg/mL (≈ 0.00295 µM). One may read the MIC99 as an inhibitory concentration at the 99% level, which refers to growth in some studies and to a panel of isolates in others. Take `C[C@H]1COC2(CCN(c3nc(=O)c4cc(C(F)(F)F)cc([N+](=O)[O-])c4s3)CC2)O1` [BTZ-043]: the MIC99 in assay [17] is 0.002 µg/mL (≈ 0.00464 µM). With `CCCc1ccc(NC(=O)COc2cc(C)nc3ccc(OC)cc23)cc1`, the MIC in assay [14] was found to be 0.02 µg/mL (≈ 0.0549 µM).

Regarding `O=c1nc(N2CCN(S(=O)(=O)c3cccs3)CC2)sc2c([N+](=O)[O-])cc(C(F)(F)F)cc12`, the MIC in [2] is 0.004 µg/mL (≈ 0.0079 µM).

Take `CSc1ccc2c(c1)N(CCC1CCCCN1C)c1ccccc1S2` (centres undefined) [THIORIDAZINE]: in assay [13], the MIC came to 15 µg/mL (≈ 40.5 µM). Consider `CCNc1nc(SCC)nc2ccccc12`, for which the MIC in assay [5] amounted to 0.05 µg/mL (≈ 0.214 µM). Further, the IC50 in assay [6] was determined as 0.011 µg/mL (≈ 0.0471 µM). `CCOC(=O)c1nc2ccc(C(F)(F)F)cc2nc1NCc1ccc(OC)cc1`: the half-inhibitory concentration (IC50) in assay [18] worked out at 6.1 µM. For the same compound, in [3], the MIC99 stood at 3.1 µM (≈ 1.26 µg/mL).
